Measured values reported in patent US6740642B2, “Macrolides with antibacterial activity” (BAsilea Parmaceutica AG, priority 2000, dated 2004).
Converted amounts (≈) assume the structure as drawn.

Tests used:
H. influenzae Christy = assay: MIC, agar dilution, HTM medium; type: cell-based, Haemophilus influenzae; conditions: Haemophilus influenzae, read-out: MIC
Text: (§1) The biological activities of compounds of the present invention against Haemophilus influenzae have been determined by standard agar dilution method using HTM medium (National Committee for Clinical Laboratory Standards. 1997. Methods for dilution antimicrobial susceptibility tests for bacteria that grow aerobically, 4th edition. Approved standard M7-A4. National Committee for Clinical Laboratory Standards, Wayne, Pa.).

H. influenzae H13 LAH = assay: MIC, agar dilution, HTM medium; type: cell-based, Haemophilus influenzae; conditions: Haemophilus influenzae, H13LAH, read-out: MIC
Text: as §1

H. influenzae 3640 = assay: MIC, agar dilution, HTM medium; type: cell-based, Haemophilus influenzae; conditions: Haemophilus influenzae, read-out: MIC
Text: as §1

H. influenzae Rd KW20 = assay: MIC, agar dilution, HTM medium; type: cell-based, Haemophilus influenzae; conditions: Haemophilus influenzae, RDKW20, read-out: MIC
Text: as §1

H. influenzae 11 = assay: MIC, agar dilution, HTM medium; type: cell-based, Haemophilus influenzae; conditions: Haemophilus influenzae, read-out: MIC
Text: as §1

H. influenzae QK 50 = assay: MIC, agar dilution, HTM medium; type: cell-based, Haemophilus influenzae; conditions: Haemophilus influenzae, QK50, read-out: MIC
Text: as §1

H. influenzae H20 HDL = assay: MIC, agar dilution, HTM medium; type: cell-based, Haemophilus influenzae; conditions: Haemophilus influenzae, H20HDL, read-out: MIC
Text: as §1

H. influenzae H28 HEL = assay: MIC, agar dilution, HTM medium; type: cell-based, Haemophilus influenzae; conditions: Haemophilus influenzae, H28HEL, read-out: MIC
Text: as §1

H. influenzae 4139 = assay: MIC, agar dilution, HTM medium; type: cell-based, Haemophilus influenzae; conditions: Haemophilus influenzae, read-out: MIC
Text: as §1

H. influenzae 3201 = assay: MIC, agar dilution, HTM medium; type: cell-based, Haemophilus influenzae; conditions: Haemophilus influenzae, read-out: MIC
Text: as §1

H. influenzae ATCC 49247 = assay: MIC, agar dilution, HTM medium; type: cell-based, Haemophilus influenzae; conditions: Haemophilus influenzae, ATCC49247, read-out: MIC
Text: as §1

H. influenzae 2947 = assay: MIC, agar dilution, HTM medium; type: cell-based, Haemophilus influenzae; conditions: Haemophilus influenzae, read-out: MIC
Text: as §1

H. influenzae QK 12/87 = assay: MIC, agar dilution, HTM medium; type: cell-based, Haemophilus influenzae; conditions: Haemophilus influenzae, QK12/87, read-out: MIC
Text: as §1

H. influenzae 1 = assay: MIC, agar dilution, HTM medium; type: cell-based, Haemophilus influenzae; conditions: Haemophilus influenzae, read-out: MIC
Text: as §1

H. influenzae 3457 = assay: MIC, agar dilution, HTM medium; type: cell-based, Haemophilus influenzae; conditions: Haemophilus influenzae, read-out: MIC
Text: as §1

H. influenzae 23369 = assay: MIC, agar dilution, HTM medium; type: cell-based, Haemophilus influenzae; conditions: Haemophilus influenzae, read-out: MIC
Text: as §1

H. influenzae ATCC 9334 = assay: MIC, agar dilution, HTM medium; type: cell-based, Haemophilus influenzae; conditions: Haemophilus influenzae, ATCC9334, read-out: MIC
Text: as §1

H. influenzae 23145 = assay: MIC, agar dilution, HTM medium; type: cell-based, Haemophilus influenzae; conditions: Haemophilus influenzae, read-out: MIC
Text: as §1

H. influenzae B 1501 = assay: MIC, agar dilution, HTM medium; type: cell-based, Haemophilus influenzae; conditions: Haemophilus influenzae, B1501, read-out: MIC
Text: as §1

H. influenzae H36 ODL = assay: MIC, agar dilution, HTM medium; type: cell-based, Haemophilus influenzae; conditions: Haemophilus influenzae, H36ODL, read-out: MIC
Text: as §1

H. influenzae 12214 = assay: MIC, agar dilution, HTM medium; type: cell-based, Haemophilus influenzae; conditions: Haemophilus influenzae, read-out: MIC
Text: as §1

S. aureus ATCC29213 = assay: MIC, standard microdilution; type: cell-based, Staphylococcus aureus; conditions: for MIC: Staphylococcus aureus, read-out: minimum inhibitory concentration (MIC)
Text: (§2) The antibacterial activities of the compounds have been determined by standard microdilution technique (National Committee for Clinical Laboratory Standards. 1997. Methods for dilution antimicrobial susceptibility tests for bacteria that grow aerobically, 4th edition. Approved standard M7-A4. National Committee for Clinical Laboratory Standards, Wayne, Pa.).

S. aureus 745 = assay: MIC, standard microdilution; type: cell-based, Staphylococcus aureus; conditions: for MIC: Staphylococcus aureus, read-out: minimum inhibitory concentration (MIC)
Text: as §2

S. aureus 1086 = assay: MIC, standard microdilution; type: cell-based, Staphylococcus aureus; conditions: for MIC: Staphylococcus aureus, read-out: minimum inhibitory concentration (MIC)
Text: as §2

St. pneumoniae 12288 = assay: MIC, standard microdilution; type: cell-based, Streptococcus pneumoniae; conditions: for MIC: Streptococcus pneumoniae, read-out: minimum inhibitory concentration (MIC)
Text: as §2

St. pneumoniae 1/4 = assay: MIC, standard microdilution; type: cell-based, Streptococcus pneumoniae; conditions: for MIC: Streptococcus pneumoniae, read-out: minimum inhibitory concentration (MIC)
Text: as §2

St. pneumoniae SL199T = assay: MIC, standard microdilution; type: cell-based, Streptococcus pneumoniae; conditions: for MIC: Streptococcus pneumoniae, read-out: minimum inhibitory concentration (MIC)
Text: as §2

St. pneumoniae 1/1 = assay: MIC, standard microdilution; type: cell-based, Streptococcus pneumoniae; conditions: for MIC: Streptococcus pneumoniae, read-out: minimum inhibitory concentration (MIC)
Text: as §2

[1] = system: P. aeruginosa ATCC27853 (+Ery. 32 μg/ml); assay: MIC, standard microdilution; type: cell-based
Text: as §2

E. coli ATCC25922 = assay: MIC, standard microdilution; type: cell-based; conditions: for MIC: Escherichia coli, read-out: minimum inhibitory concentration (MIC)
Text: as §2

SMILES | MIC (H. influenzae Christy) [µg/mL] | MIC (H. influenzae H13 LAH) [µg/mL] | MIC (H. influenzae 3640) [µg/mL] | MIC (H. influenzae Rd KW20) [µg/mL] | MIC (H. influenzae 11) [µg/mL] | MIC (H. influenzae QK 50) [µg/mL] | MIC (H. influenzae H20 HDL) [µg/mL] | MIC (H. influenzae H28 HEL) [µg/mL] | MIC (H. influenzae 4139) [µg/mL] | MIC (H. influenzae 3201) [µg/mL] | MIC (H. influenzae ATCC 49247) [µg/mL] | MIC (S. aureus ATCC29213) [µg/mL] | MIC (S. aureus 745) [µg/mL] | MIC (S. aureus 1086) [µg/mL] | MIC (St. pneumoniae 12288) [µg/mL] | MIC (St. pneumoniae 1/4) [µg/mL] | MIC (St. pneumoniae SL199T) [µg/mL] | MIC (St. pneumoniae 1/1) [µg/mL] | minimum inhibitory concentration (MIC) [1] [µg/mL] | MIC (E. coli ATCC25922) [µg/mL] | other results
CC[C@H]1OC(=O)[C@H](C)[C@@H](O[C@H]2C[C@@](C)(OC)[C@@H](O)C(C)O2)[C@H](C)[C@@H](O[C@@H]2OC(C)C[C@H](N(C)C)[C@H]2O)[C@](C)(O)C[C@@H](C)CN(C)C(C)C(O)[C@]1(C)O (stereo partly drawn) [Azithromycin (3), azithromycin] | 2 (≈ 2.67 µM) | 2 (≈ 2.67 µM) | 1 (≈ 1.34 µM) | 2 (≈ 2.67 µM) | 2 (≈ 2.67 µM) | 2 (≈ 2.67 µM) | 1 (≈ 1.34 µM) | 1 (≈ 1.34 µM) | 0.5 (≈ 0.668 µM) | 2 (≈ 2.67 µM) | 2 (≈ 2.67 µM) | – | – | – | – | – | – | – | – | – | MIC (H. influenzae 2947): 2 µg/mL (≈ 2.67 µM); MIC (H. influenzae QK 12/87): 0.5 µg/mL (≈ 0.668 µM); MIC (H. influenzae 1): 2 µg/mL (≈ 2.67 µM); MIC (H. influenzae 3457): 0.5 µg/mL (≈ 0.668 µM); MIC (H. influenzae 23369): 4 µg/mL (≈ 5.34 µM); MIC (H. influenzae ATCC 9334): 2 µg/mL (≈ 2.67 µM); MIC (H. influenzae 23145): 2 µg/mL (≈ 2.67 µM); MIC (H. influenzae B 1501): 1 µg/mL (≈ 1.34 µM); MIC (H. influenzae H36 ODL): 2 µg/mL (≈ 2.67 µM); MIC (H. influenzae 12214): 2 µg/mL (≈ 2.67 µM)
CC[C@H]1OC(=O)[C@H](C)[C@@H](O[C@H]2C[C@@](C)(OC)[C@@H](O)[C@H](C)O2)[C@H](C)[C@@H](O[C@@H]2O[C@H](C)C[C@H](N(C)C)[C@H]2O)[C@](C)(OC)C[C@@H](C)C(=O)[C@H](C)[C@@H](O)[C@]1(C)O [Clarithromycin (2), clarithromycin] | 8 (≈ 10.7 µM) | 8 (≈ 10.7 µM) | 4 (≈ 5.35 µM) | 8 (≈ 10.7 µM) | 16 (≈ 21.4 µM) | 8 (≈ 10.7 µM) | 4 (≈ 5.35 µM) | 4 (≈ 5.35 µM) | 4 (≈ 5.35 µM) | 16 (≈ 21.4 µM) | 8 (≈ 10.7 µM) | 0.25 (≈ 0.334 µM) | > 16 | 16 (≈ 21.4 µM) | > 16 | 16 (≈ 21.4 µM) | 16 (≈ 21.4 µM) | ≤ 0.12 | >16 | > 16 | MIC (H. influenzae 2947): 16 µg/mL (≈ 21.4 µM); MIC (H. influenzae QK 12/87): 2 µg/mL (≈ 2.67 µM); MIC (H. influenzae 1): 8 µg/mL (≈ 10.7 µM); MIC (H. influenzae 3457): 1 µg/mL (≈ 1.34 µM); MIC (H. influenzae 23369): 16 µg/mL (≈ 21.4 µM); MIC (H. influenzae ATCC 9334): 8 µg/mL (≈ 10.7 µM); MIC (H. influenzae 23145): 8 µg/mL (≈ 10.7 µM); MIC (H. influenzae B 1501): 8 µg/mL (≈ 10.7 µM); MIC (H. influenzae H36 ODL): 16 µg/mL (≈ 21.4 µM); MIC (H. influenzae 12214): 8 µg/mL (≈ 10.7 µM)
CC[C@H]1OC(=O)[C@H](C)C(=O)[C@H](C)[C@@H](O[C@@H]2O[C@H](C)C[C@H](N(C)C)[C@H]2O)[C@](C)(OC)C[C@@H](C)C(=O)[C@H](C)[C@H]2CC(=O)O[C@@]21C [Compound I-25, (3aR,4R,6R,8R,9R,10R,12R,15R,15aS)-15-Ethyloctahydro-8-methoxy-4,6,8,10,12,15a-hexamethyl-9-[[3,4,6-trideoxy-3-(dimethylamino)-β-D-xylo-hexopyranosyl]oxy]-2H-furo[2,3-c]oxacyclotetradecin-2,5,11,13 (3H,6H,12H)-tetrone] | – | – | – | – | – | – | – | – | – | – | – | 0.5 (≈ 0.817 µM) | > 16 | 0.5 (≈ 0.817 µM) | > 16 | 16 (≈ 26.2 µM) | > 16 | ≤ 0.12 | >16 | > 16 | –
CC[C@H]1OC(=O)[C@H](C)C(=O)[C@H](C)[C@@H](O[C@@H]2O[C@H](C)C[C@H](N(C)C)[C@H]2O)[C@](C)(OC)C[C@@H](C)C(=O)[C@H](C)[C@H]2[C@H](SCCCn3cnc4c(N)ncnc43)C(=O)O[C@@]21C [Compound I-26, (3S,3aR,4R,6R,8R,9R,10R,12R,15R,15aS)-3-[[3-[6-Amino-9H-purine-9-yl]propyl]thio]-15-ethyloctahydro-8-methoxy-4,6,8,10,12,15a-hexamethyl-9-[[3,4,6-trideoxy-3-(dimethylamino)-β-D-xylo-hexopyranosyl]oxy]-2H-furo[2,3-c]oxacyclotetradecin-2,5,11,13(3H,6H,12H)-tetrone] | – | – | – | – | – | – | – | – | – | – | – | ≤ 0.12 | > 16 | ≤ 0.12 | 0.25 (≈ 0.305 µM) | ≤ 0.25 | ≤ 0.25 | ≤ 0.25 | >16 | 16 (≈ 19.5 µM) | –
CC[C@H]1OC(=O)[C@H](C)C(=O)[C@H](C)[C@@H](O[C@@H]2O[C@H](C)C[C@H](N(C)C)[C@H]2O)[C@](C)(OC)C[C@@H](C)C(=O)[C@H](C)[C@H]2[C@H](SCCn3cnc4c(N(C)C)ncnc43)C(=O)O[C@@]21C [Compound I-27, (3S,3aR,4R,6R,8R,9R,10R,12R,15R,15aS)-3-[[2-[6-N,N-Dimethylamino-9H-purine-9-yl]ethyl]thio]-15-ethyloctahydro-8-methoxy-4,6,8,10,12,15a-hexamethyl-9-[[3,4,6-trideoxy-3-(dimethylamino)-β-D-xylo-hexopyranosyl]oxy]-2H-furo[2,3-c]oxacyclotetradecin-2,5,11,13(3H,6H,12H)-tetrone] | – | – | – | – | – | – | – | – | – | – | – | – | – | – | – | – | – | – | >16 | – | minimum inhibitory concentration (MIC) (S. aureus ATCC29213): 0.25 µg/mL (≈ 0.3 µM); minimum inhibitory concentration (MIC) (S. aureus 745): >16 µg/mL; minimum inhibitory concentration (MIC) (S. aureus 1086): 1 µg/mL (≈ 1.2 µM); minimum inhibitory concentration (MIC) (St. pneumoniae 12288): 2 µg/mL (≈ 2.4 µM); minimum inhibitory concentration (MIC) (St. pneumoniae 1/4): <=0.25 μg/ml; minimum inhibitory concentration (MIC) (St. pneumoniae SL199T): 1 µg/mL (≈ 1.2 µM); minimum inhibitory concentration (MIC) (St. pneumoniae 1/1): <=0.25 μg/ml; minimum inhibitory concentration (MIC) (E. coli ATCC25922): >16 µg/mL
CO[C@@H]1[C@@H](O[C@@H]2O[C@H](C)[C@@H](O[C@H]3C[C@@](C)(O)[C@@H](OC(=O)CC(C)C)[C@H](C)O3)[C@H](N(C)C)[C@H]2O)[C@@H](CC=O)C[C@@H](C)[C@@H](O)/C=C/C=C/C[C@@H](C)OC(=O)C[C@H]1OC(C)=O [Josamycin, reference compound] | – | – | – | – | – | – | – | – | – | – | – | 2 (≈ 2.42 µM) | > 16 | 2 (≈ 2.42 µM) | > 16 | ≤ 4 | > 16 | ≤ 0.12 | >16 | > 16 | –
